Data: ChEMBL document CHEMBL3414447, “Structure-guided design of a series of MCL-1 inhibitors with high affinity and selectivity” (J Med Chem, 2015)
pKi: −log10 of the molar value. Values belong to the compound of their own block, whether it stands above or below them. Active and inactive are the calls of the source. The rule behind the calls is not given here.

How the values were obtained:
[1] = target: T1, Induced myeloid leukemia cell differentiation protein Mcl-1 (Homo sapiens, UniProt Q07820)
Description: (§1) Displacement of fluorescent labeled NOXA peptide from recombinant human MCL1 by fluorescence polarization assay

[2] = target: T1, Induced myeloid leukemia cell differentiation protein Mcl-1; remark: listed apart in the source
Description: Displacement of fluorescent labeled NOXA peptide from recombinant human MCL1 by fluorescence polarization assay in presence of 1% human serum

[3] = target: T1, Induced myeloid leukemia cell differentiation protein Mcl-1; remark: listed apart in the source
Description: as §1

[4] = target: T1, Induced myeloid leukemia cell differentiation protein Mcl-1; remark: listed apart in the source
[5] = target: T1, Induced myeloid leukemia cell differentiation protein Mcl-1; remark: listed apart in the source
[6] = target: Albumin (Homo sapiens, UniProt P02768)
Description: Displacement of probe S1 from recombinant human serum albumin domain 3 after 5 mins by fluorescence polarization assay

[7] = target: T1, Induced myeloid leukemia cell differentiation protein Mcl-1; assay: Inhibition of MCL-1 in human H929 cells assessed as loss in cell viability after 4 hrs by CellTiter-Glo assay in presence of 0.1 to 10% fetal bovine serum; assay type: cell-based
[8] = target: T1, Induced myeloid leukemia cell differentiation protein Mcl-1; assay: Inhibition of MCL-1 in human BXPC3 cells assessed as reduction of navitoclax EC50 at 20 uM after 72 hrs by CellTiter-Glo assay in presence of 10% fetal bovine serum; assay type: cell-based; details: BXPC-3
[9] = target: T1, Induced myeloid leukemia cell differentiation protein Mcl-1; assay: Inhibition of MCL-1 in human H929 cells assessed as induction of caspase3/7 activation after 4 hrs by caspase-Glo 3/7 assay in presence of 0.1 to 10% fetal bovine serum; assay type: cell-based
[10] = target: T2, Bcl-2-related protein A1 (Homo sapiens, UniProt Q16548); assay: Inhibition of BCL2-A1 (unknown origin) after 1 hr by TR-FRET assay
T2 sequence (Q16548 whole entry): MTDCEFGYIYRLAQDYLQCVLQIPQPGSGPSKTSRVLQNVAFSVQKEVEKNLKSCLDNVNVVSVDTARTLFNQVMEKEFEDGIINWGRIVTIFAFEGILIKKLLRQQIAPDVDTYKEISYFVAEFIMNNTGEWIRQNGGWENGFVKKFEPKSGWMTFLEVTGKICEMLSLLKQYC

[11] = target: T3, Apoptosis regulator Bcl-2 (Homo sapiens, UniProt P10415)
[12] = target: T4, Bcl-2-like protein 1 (Homo sapiens, UniProt Q07817)
[13] = Fraction unbound in human plasma after 4.5 hrs by equilibrium dialysis method; assay type: ADME, cell-free
[14] = target: T5, Bcl-2-like protein 2 (Homo sapiens, UniProt Q92843); assay: Inhibition of BCL-W (unknown origin) after 1 hr by TR-FRET assay
T5 sequence (Q92843 whole entry): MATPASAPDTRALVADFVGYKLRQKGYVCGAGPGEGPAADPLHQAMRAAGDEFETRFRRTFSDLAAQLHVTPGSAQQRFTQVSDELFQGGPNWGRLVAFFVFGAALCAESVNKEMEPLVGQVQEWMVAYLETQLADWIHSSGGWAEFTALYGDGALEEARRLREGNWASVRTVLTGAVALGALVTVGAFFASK

[15] = target: T4, Bcl-2-like protein 1; assay: Inhibition of BCL-XL (unknown origin) by fluorescence polarization assay
[16] = target: T1, Induced myeloid leukemia cell differentiation protein Mcl-1; assay: Displacement of fluorescent labeled NOXA peptide from recombinant MCL1 (unknown origin) after 15 mins by fluorescence polarization assay
[17] = target: T3, Apoptosis regulator Bcl-2; assay: Inhibition of BCL-2 (unknown origin) by fluorescence polarization assay
[18] = target: T1, Induced myeloid leukemia cell differentiation protein Mcl-1; assay: Ratio of Ki(app) for MCL1 (unknown origin) by TR-FRET assay in presence of 10% human serum to Ki(app) for MCL1 (unknown origin) by TR-FRET assay in absence of 10% human serum

T1 sequence (Q07820 whole entry): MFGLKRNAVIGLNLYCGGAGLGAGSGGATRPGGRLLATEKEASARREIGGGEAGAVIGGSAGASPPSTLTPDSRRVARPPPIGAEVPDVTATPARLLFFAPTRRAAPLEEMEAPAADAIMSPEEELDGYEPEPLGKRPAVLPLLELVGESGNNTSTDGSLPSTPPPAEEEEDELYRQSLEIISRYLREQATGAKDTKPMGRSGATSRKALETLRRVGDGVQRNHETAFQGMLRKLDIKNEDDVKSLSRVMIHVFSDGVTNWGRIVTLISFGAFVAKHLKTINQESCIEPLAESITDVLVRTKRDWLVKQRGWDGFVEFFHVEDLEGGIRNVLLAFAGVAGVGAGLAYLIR
Sequence of Albumin (P02768 whole entry): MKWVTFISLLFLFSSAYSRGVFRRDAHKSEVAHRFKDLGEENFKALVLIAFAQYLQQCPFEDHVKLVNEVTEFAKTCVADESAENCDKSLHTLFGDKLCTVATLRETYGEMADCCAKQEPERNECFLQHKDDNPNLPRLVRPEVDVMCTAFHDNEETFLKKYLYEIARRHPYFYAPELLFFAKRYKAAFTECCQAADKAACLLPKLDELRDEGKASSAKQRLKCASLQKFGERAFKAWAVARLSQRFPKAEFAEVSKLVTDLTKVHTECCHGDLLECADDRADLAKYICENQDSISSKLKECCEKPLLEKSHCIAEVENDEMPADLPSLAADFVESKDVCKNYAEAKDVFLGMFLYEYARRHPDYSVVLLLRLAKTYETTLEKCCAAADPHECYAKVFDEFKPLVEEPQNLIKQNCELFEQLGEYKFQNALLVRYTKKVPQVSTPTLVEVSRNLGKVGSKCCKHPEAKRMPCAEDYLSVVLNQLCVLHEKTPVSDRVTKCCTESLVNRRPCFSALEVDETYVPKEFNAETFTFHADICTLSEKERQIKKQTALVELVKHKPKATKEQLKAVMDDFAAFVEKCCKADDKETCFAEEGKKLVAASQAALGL
T3 sequence (P10415 whole entry): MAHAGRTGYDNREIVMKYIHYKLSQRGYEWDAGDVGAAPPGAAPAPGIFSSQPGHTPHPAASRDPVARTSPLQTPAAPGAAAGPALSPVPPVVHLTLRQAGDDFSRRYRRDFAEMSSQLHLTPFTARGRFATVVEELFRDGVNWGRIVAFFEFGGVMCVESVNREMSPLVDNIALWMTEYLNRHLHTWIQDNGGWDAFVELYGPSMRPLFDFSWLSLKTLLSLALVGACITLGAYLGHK
T4 sequence (Q07817 whole entry): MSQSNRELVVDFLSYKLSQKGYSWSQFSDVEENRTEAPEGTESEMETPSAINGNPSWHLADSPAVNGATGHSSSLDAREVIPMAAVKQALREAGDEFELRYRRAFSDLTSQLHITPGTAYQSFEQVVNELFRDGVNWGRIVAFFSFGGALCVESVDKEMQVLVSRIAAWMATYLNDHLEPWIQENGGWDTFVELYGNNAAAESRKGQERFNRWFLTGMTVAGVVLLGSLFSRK

SMILES: Cc1cccc(-c2cccc3c(CCCOc4cccc5ccccc45)c(C(=O)O)[nH]c23)c1
- pKi [1]: 6.80
- pKi [2]: 5.09

SMILES: Cc1ccccc1-c1cccc2c(CCCO)c(C(=O)O)[nH]c12
- inhibition [3]: inactive

SMILES: Cc1nn(C)c(COc2ccc(N3CCN(S(=O)(=O)N4CCOCC4)CC3)cc2)c1-c1cccc2c(CCCOc3cccc4ccccc34)c(C(=O)O)n(CCN3CCOCC3)c12
- pKi [4]: 7.91
- pKi [5]: 9.32

SMILES: Cc1nn(C)c(COc2ccccc2)c1-c1cccc2c(CCCOc3cccc4ccccc34)c(C(=O)O)n(CCN3CCOCC3)c12
- pKi [4]: 6.94
- pKi [5]: 8.64

SMILES: Cc1nn(C)c(C)c1-c1cccc2c(CCCOc3cccc4ccccc34)c(C(=O)O)n(CCN3CCOCC3)c12
- pKi [1]: > 8.00
- pKi [6]: 5.84
- pKi [4]: 7.46
- pKi [2]: 8.40
- pKi [5]: 8.82

SMILES: CCS(=O)(=O)N1CCN(c2ccc(OCc3c(-c4cccc5c(CCCOc6cccc7ccccc67)c(C(=O)O)n(CCN6CCOCC6)c45)c(C)nn3C)cc2)CC1
- pKi [4]: 8.31
- pKi [5]: 9.70

SMILES: Cc1ccc(-c2cccc3c(CCCOc4cccc5ccccc45)c(C(=O)O)[nH]c23)cc1
- pKi [1]: 6.82
- pKi [2]: 5.04

SMILES: CC(=O)N1CCN(c2ccc(OCc3c(-c4cccc5c(CCCOc6cccc7ccccc67)c(C(=O)O)n(CCN6CCOCC6)c45)c(C)nn3C)cc2)CC1
- Ratio Ki(app) [18]: 10
- pKi [4]: 8.57
- pKi [5]: 9.62

Further lines, with some results ahead:

- pKi [4]: 7.01
- pKi [5]: 8.74
SMILES: CC(=O)N1CCN(c2ccc(OCc3nn(C)c(C)c3-c3cccc4c(CCCOc5cccc6ccccc56)c(C(=O)O)n(Cc5cccnc5)c34)cc2)CC1

- pKi [1]: 7.46
- pKi [6]: > 7.52
- pKi [2]: 5.07
SMILES: Cc1ccccc1-c1cccc2c(CCCOc3cccc4ccccc34)c(C(=O)O)[nH]c12

- pKi [4]: 7.92
- pKi [5]: 8.70
SMILES: CCOC(=O)c1c(CCCOc2cccc3ccccc23)c2cccc(-c3c(C)nn(C)c3COc3ccc(N4CCNCC4)cc3)c2n1CCN1CCOCC1

- fold change (FC) [8]: 45
- inhibition [9]: Active
- pKi [10]: < 6.18
- pKi [11]: < 6.18
- pKi [12]: < 6.18
- fraction unbound at 4.5 h [13]: < 0.01
- pKi [14]: < 6.18
SMILES: Cc1nn(C)c(COc2ccc(N3CCN(S(C)(=O)=O)CC3)cc2)c1-c1cccc2c(CCCOc3cccc4ccccc34)c(C(=O)O)n(CCN3CCOCC3)c12
- inhibition [7]: Active

- inhibition [3]: inactive
- pKi [6]: < 4.00
SMILES: O=C(O)c1[nH]c2ccccc2c1CCCO

- pKi [4]: 8.10
- pKi [5]: 9.35
SMILES: Cc1nn(C)c(COc2ccc(N3CCN(S(=O)(=O)N(C)C)CC3)cc2)c1-c1cccc2c(CCCOc3cccc4ccccc34)c(C(=O)O)n(CCN3CCOCC3)c12

- pKi [15]: < 5.00
- pKi [16]: 5.36
- pKi [17]: < 5.00
SMILES: O=C(O)c1[nH]c2ccccc2c1CCCCC1CCCCC1

- pKi [1]: 6.89
- pKi [2]: 5.28
SMILES: O=C(O)c1[nH]c2c(-c3ccccc3)cccc2c1CCCOc1cccc2ccccc12

- pKi [4]: 8.06
- pKi [5]: 9.51
SMILES: CCCS(=O)(=O)N1CCN(c2ccc(OCc3c(-c4cccc5c(CCCOc6cccc7ccccc67)c(C(=O)O)n(CCN6CCOCC6)c45)c(C)nn3C)cc2)CC1
